The NIST ThermoML archive (doi:10.1016/j.tca.2009.06.015)
“And” between values parts separate entries of the source, which are not always exact repeats. Equal entries are not always repeated. Numbers after ± are expanded uncertainties.

Key:
[1] = xn = mol fraction of the nth substance listed; conditions: 101 kPa, Liquid; for viscosity: Capillary tube (Ostwald / Ubbelohde) method; for mass density: Vibrating tube method
[2] = refractive index (Na D-line) (dimensionless); xn = mol fraction of the nth substance listed; conditions: 101 kPa, Liquid, Standard Abbe refractometry
[3] = 101 kPa, Liquid; for viscosity: Capillary tube (Ostwald / Ubbelohde) method; for mass density: Vibrating tube method
[4] = refractive index (Na D-line) (dimensionless); conditions: 101.33 kPa, Liquid, Standard Abbe refractometry

SMILES | viscosity ([1]; 293.15 K, x1 = 1) [mPa·s] | mass density ([1]; 293.15 K, x1 = 1) [kg/m3] | viscosity ([1]; 298.15 K, x1 = 1) [mPa·s] | mass density ([1]; 298.15 K, x1 = 1) [kg/m3] | viscosity ([1]; 303.15 K, x1 = 1) [mPa·s] | mass density ([1]; 303.15 K, x1 = 1) [kg/m3] | viscosity ([1]; 308.15 K, x1 = 1) [mPa·s] | mass density ([1]; 308.15 K, x1 = 1) [kg/m3] | viscosity ([3]; 293.15 K) [mPa·s] | mass density ([3]; 293.15 K) [kg/m3] | viscosity ([3]; 298.15 K) | mass density ([3]; 298.15 K) [kg/m3] | viscosity ([3]; 303.15 K) | mass density ([3]; 303.15 K) [kg/m3] | viscosity ([3]; 308.15 K) | mass density ([3]; 308.15 K) [kg/m3] | refractive index ([4]; 293.15 K) | refractive index ([4]; 298.15 K) | refractive index ([4]; 303.15 K) | refractive index ([4]; 308.15 K) | also measured
CC#N [acetonitrile] + CCCCC(C)O | 0.3542 ± 0.004 | 782.04 ± 0.31 | 0.336 ± 0.004 | 776.64 ± 0.31 | 0.325 ± 0.004 | 771.21 ± 0.31 | 0.308 ± 0.004 | 765.75 ± 0.31 |  |  |  |  |  |  |  |  |  |  |  |  | refractive index ([2]; 293.15 K, x1 = 1): 1.3436 ± 0.0021; refractive index ([2]; 298.15 K, x1 = 1): 1.3411 ± 0.0021; refractive index ([2]; 303.15 K, x1 = 1): 1.339 ± 0.0021; refractive index ([2]; 308.15 K, x1 = 1): 1.3371 ± 0.0021
CC#N [acetonitrile] + CCCCCC(C)O | 0.3542 ± 0.036 | 782.04 ± 0.31 | 0.3369 ± 0.034 | 776.64 ± 0.31 | 0.3254 ± 0.033 | 771.21 ± 0.31 | 0.3082 ± 0.031 | 765.75 ± 0.31 |  |  |  |  |  |  |  |  |  |  |  |  | refractive index ([2]; 293.15 K, x1 = 1): 1.3436 ± 0.0021; refractive index ([2]; 298.15 K, x1 = 1): 1.3411 ± 0.0021; refractive index ([2]; 303.15 K, x1 = 1): 1.339 ± 0.0021; refractive index ([2]; 308.15 K, x1 = 1): 1.3371 ± 0.0021
CC(C)O [propan-2-ol] + CC#N |  |  |  |  |  |  |  |  |  |  |  |  |  |  |  |  |  |  |  |  | viscosity ([1]; 293.15 K, x2 = 0): 2.351 ± 0.024 mPa·s; mass density ([1]; 293.15 K, x2 = 0): 785.19 ± 0.31 kg/m3; viscosity ([1]; 298.15 K, x2 = 0): 2.044 ± 0.022 mPa·s; mass density ([1]; 298.15 K, x2 = 0): 780.98 ± 0.31 kg/m3; viscosity ([1]; 303.15 K, x2 = 0): 1.758 ± 0.019 mPa·s; mass density ([1]; 303.15 K, x2 = 0): 776.71 ± 0.31 kg/m3; viscosity ([1]; 308.15 K, x2 = 0): 1.532 ± 0.017 mPa·s; mass density ([1]; 308.15 K, x2 = 0): 772.36 ± 0.31 kg/m3; refractive index ([2]; 293.15 K, x2 = 0): 1.3766 ± 0.0021; refractive index ([2]; 298.15 K, x2 = 0): 1.3745 ± 0.0021; refractive index ([2]; 303.15 K, x2 = 0): 1.3724 ± 0.0021; refractive index ([2]; 308.15 K, x2 = 0): 1.3703 ± 0.0021
CC(C)O [propan-2-ol] |  |  |  |  |  |  |  |  | 2.351 ± 0.024 | 785.19 ± 0.31 | 2.044 ± 0.022 mPa·s | 780.98 ± 0.31 | 1.758 ± 0.019 mPa·s | 776.71 ± 0.31 | 1.532 ± 0.017 mPa·s | 772.36 ± 0.31 | 1.3766 ± 0.0021 | 1.3745 ± 0.0021 | 1.3724 ± 0.0021 | 1.3703 ± 0.0021 | 
CCCC(C)O (stereo unspecified) [pentan-2-ol] |  |  |  |  |  |  |  |  | 4.298 ± 0.05 | 809.29 ± 0.31 | 3.478 ± 0.059 mPa·s | 805.24 ± 0.34 |  |  |  |  | 1.406 ± 0.0021 | 1.4045 ± 0.0039 |  |  | 
CC#N [acetonitrile] |  |  |  |  |  |  |  |  | 0.3542 ± 0.004 | 782.04 ± 0.31 | 0.3369 ± 0.0038 mPa·s and 0.336 ± 0.004 mPa·s | 776.64 ± 0.31 | 0.3254 ± 0.0037 mPa·s and 0.325 ± 0.004 mPa·s | 771.21 ± 0.31 | 0.3082 ± 0.0036 mPa·s and 0.308 ± 0.004 mPa·s | 765.75 ± 0.31 | 1.3436 ± 0.0021 | 1.3411 ± 0.0021 | 1.339 ± 0.0021 | 1.3371 ± 0.0021 | 
CC#N [acetonitrile] + CCC(C)O | 0.3542 ± 0.004 | 782.04 ± 0.31 | 0.3369 ± 0.0038 | 776.64 ± 0.31 | 0.3254 ± 0.0037 | 771.21 ± 0.31 | 0.3082 ± 0.0036 | 765.75 ± 0.31 |  |  |  |  |  |  |  |  |  |  |  |  | refractive index ([2]; 293.15 K, x1 = 1): 1.3436 ± 0.0021; refractive index ([2]; 298.15 K, x1 = 1): 1.3411 ± 0.0021; refractive index ([2]; 303.15 K, x1 = 1): 1.339 ± 0.0021; refractive index ([2]; 308.15 K, x1 = 1): 1.3371 ± 0.0021
CCCCCC(C)O (stereo unspecified) [2-heptanol] |  |  |  |  |  |  |  |  | 6.52 ± 0.072 | 817.18 ± 0.3 | 5.33 ± 0.063 mPa·s | 813.33 ± 0.3 | 4.301 ± 0.052 mPa·s | 809.44 ± 0.31 | 3.528 ± 0.044 mPa·s | 805.5 ± 0.31 | 1.4206 ± 0.0021 | 1.4188 ± 0.0021 | 1.4165 ± 0.0021 | 1.4143 ± 0.0021 | 
CCC(C)O (stereo unspecified) [butan-2-ol] |  |  |  |  |  |  |  |  | 3.912 ± 0.046 | 806.57 ± 0.31 | 3.132 ± 0.039 mPa·s | 802.56 ± 0.31 | 2.534 ± 0.029 mPa·s | 798.26 ± 0.31 | 2.172 ± 0.024 mPa·s | 793.96 ± 0.31 | 1.3966 ± 0.0021 | 1.3946 ± 0.0021 | 1.3924 ± 0.0021 | 1.3905 ± 0.0021 | 
CC#N [acetonitrile] + CCCC(C)O | 0.3542 ± 0.071 | 782.04 ± 0.31 | 0.3369 ± 0.067 | 776.64 ± 0.31 | 0.3254 ± 0.065 | 771.21 ± 0.31 | 0.3082 ± 0.062 | 765.75 ± 0.31 |  |  |  |  |  |  |  |  |  |  |  |  | refractive index ([2]; 293.15 K, x1 = 1): 1.3436 ± 0.0021; refractive index ([2]; 298.15 K, x1 = 1): 1.3411 ± 0.0021; refractive index ([2]; 303.15 K, x1 = 1): 1.339 ± 0.0021; refractive index ([2]; 308.15 K, x1 = 1): 1.3371 ± 0.0021
CCCCC(C)O (stereo unspecified) [2-hexanol] |  |  |  |  |  |  |  |  | 5.155 ± 0.061 | 814.08 ± 0.3 | 4.1 ± 0.05 mPa·s | 810.14 ± 0.31 | 3.41 ± 0.04 mPa·s | 806.13 ± 0.31 | 2.819 ± 0.034 mPa·s | 802.06 ± 0.31 | 1.4135 ± 0.0021 | 1.4116 ± 0.0021 | 1.4093 ± 0.0021 | 1.4077 ± 0.0021 | 
